Test results reported in ChEMBL document CHEMBL5579853, “Recent progress in the development of hypoxia-inducible factor 2α (HIF-2α) modulators: Inhibitors, agonists, and degraders (2009-2024)” (Eur J Med Chem, 2024).

Tests used:
[1] = molecular target: Endothelial PAS domain-containing protein 1 (Homo sapiens, UniProt Q99814); experiment: Inhibition of HIF-2alpha (unknown origin)
786-0 = experiment: cells; conditions: Homo sapiens, 786-0, 72 h
Description: Antiproliferative activity against human 786-0 cells assessed as inhibition of cell growth incubated for 72 hrs by celltiter-glo assay

[2] = molecular target: T1, Vascular endothelial growth factor A, long form (Homo sapiens, UniProt P15692); experiment: Inhibition of VEGF (unknown origin) by FRET based analysis
T1 sequence (P15692 whole entry): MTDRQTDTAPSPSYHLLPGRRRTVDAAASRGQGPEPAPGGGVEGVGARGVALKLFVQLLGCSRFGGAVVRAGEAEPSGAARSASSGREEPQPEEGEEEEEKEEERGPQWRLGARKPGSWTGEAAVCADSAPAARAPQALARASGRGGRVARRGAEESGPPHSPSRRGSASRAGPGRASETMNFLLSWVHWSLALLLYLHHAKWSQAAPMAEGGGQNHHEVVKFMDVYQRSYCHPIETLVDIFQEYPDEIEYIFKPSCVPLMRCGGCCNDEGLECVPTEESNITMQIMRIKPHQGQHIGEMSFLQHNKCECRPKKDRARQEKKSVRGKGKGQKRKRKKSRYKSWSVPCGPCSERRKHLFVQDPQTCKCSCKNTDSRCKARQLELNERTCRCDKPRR

Sequence of Endothelial PAS domain-containing protein 1 (Q99814 whole entry, the tested form may be a part): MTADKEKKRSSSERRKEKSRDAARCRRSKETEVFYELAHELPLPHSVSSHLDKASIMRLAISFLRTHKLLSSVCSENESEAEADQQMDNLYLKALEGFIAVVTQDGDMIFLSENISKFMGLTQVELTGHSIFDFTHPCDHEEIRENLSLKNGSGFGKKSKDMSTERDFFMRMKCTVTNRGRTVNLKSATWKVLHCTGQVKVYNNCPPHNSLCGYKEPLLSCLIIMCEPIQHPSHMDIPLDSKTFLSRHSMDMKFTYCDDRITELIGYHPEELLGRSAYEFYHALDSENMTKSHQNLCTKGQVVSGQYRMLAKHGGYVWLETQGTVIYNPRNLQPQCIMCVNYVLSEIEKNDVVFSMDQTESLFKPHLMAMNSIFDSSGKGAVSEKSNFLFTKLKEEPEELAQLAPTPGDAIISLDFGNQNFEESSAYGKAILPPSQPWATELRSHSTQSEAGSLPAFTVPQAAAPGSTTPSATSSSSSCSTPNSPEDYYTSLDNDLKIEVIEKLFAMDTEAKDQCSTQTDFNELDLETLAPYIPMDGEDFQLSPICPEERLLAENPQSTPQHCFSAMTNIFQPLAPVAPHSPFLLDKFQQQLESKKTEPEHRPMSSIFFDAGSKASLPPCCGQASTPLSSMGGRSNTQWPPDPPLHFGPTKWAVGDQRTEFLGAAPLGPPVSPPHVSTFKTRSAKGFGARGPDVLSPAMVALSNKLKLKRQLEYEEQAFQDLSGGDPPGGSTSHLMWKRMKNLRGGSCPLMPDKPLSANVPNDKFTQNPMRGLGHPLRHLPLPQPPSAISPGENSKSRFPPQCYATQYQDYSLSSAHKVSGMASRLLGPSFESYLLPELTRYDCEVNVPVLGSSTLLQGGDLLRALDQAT

SMILES	EC50 [1] [nM]	further results
CNC(=O)c1ccn2c(C(F)F)cc(-c3ccc(C)c(C)c3)nc12		IC50 (786-0): < 5000 nM
CC[C@@H](Nc1cccc(F)c1)C(=O)N/N=C/c1cccc(C)c1O		IC50 (786-0): 5000 nM
Fc1c(C(F)(F)F)ncc2c1SC[C@H](F)[C@@]21CN2C=C(C(F)(F)F)C(OC(F)F)=CC2=N1		IC50 [2]: 15 nM
N#Cc1cc(F)cc(Oc2ccc(S(=O)(=O)C(F)(F)F)c3[nH]ncc23)c1	< 100	
CS(=O)(=O)c1ccc(N2CCCc3ccccc32)c2c1[C@H](O)[C@H](F)C2	340	
CS(=O)(=O)c1ccc([C@H]2CCCc3cc(F)cc(C#N)c32)c2c1[C@H](O)[C@H](F)[C@@H]2F	< 100	
FC(F)OC1=CC2=N[C@]3(C[C@H]4C[C@H]4c4c3ccnc4Cl)CN2C=C1C(F)(F)F		IC50 [2]: 50 nM
CS(=O)(=O)c1sc(N2CCCc3ccccc32)c2c1[C@H](O)[C@H](F)C2	2200	

The next lines start with results.

EC50 [1] [nM]	SMILES	further results
500	OC1c2c(C(F)(F)F)cn(-c3cncc(F)c3)c2CC(F)C1F (stereo not drawn)	
21	O[C@H]1c2c(C(F)(F)F)ncc(OC3CC(F)(F)C3)c2[C@@H](F)[C@H]1F	
11	O[C@@H]1CCc2c(Oc3cc(F)cc(F)c3)ncnc21	
29	CP(C)(=O)c1ccc(Oc2cc(F)cc(F)c2)c2c1C(O)C(F)(F)C2 (stereo not drawn)	
< 50	N#Cc1cc(F)cc(Oc2ccc3c4c2C(F)CC4(O)C(F)(F)S3(=O)=O)c1 (stereo not drawn)	
